Literature values as cited in patent US20150141336A1, “Pancreatic Peptide Compounds and Use” (Novo Nordisk A/S, priority 2012, published 2015).

Details: minipig, in vivo; cited from earlier work

For `CC[C@H](C)[C@H](NC(=O)[C@H](Cc1ccc(O)cc1)NC(=O)[C@H](CCCNC(=N)N)NC(=O)[C@H](CCCNC(=N)N)NC(=O)[C@H](CC(C)C)NC(=O)[C@H](CC(=O)O)NC(=O)[C@H](C)NC(=O)[C@H](C)NC(=O)[C@H](Cc1ccc(O)cc1)NC(=O)[C@H](CCC(N)=O)NC(=O)[C@H](C)NC(=O)[C@H](CCSC)NC(=O)[C@H](CCC(N)=O)NC(=O)[C@H](CCC(=O)O)NC(=O)[C@@H]1CCCN1C(=O)[C@@H](NC(=O)[C@H](C)NC(=O)[C@H](CC(N)=O)NC(=O)[C@H](CC(=O)O)NC(=O)CNC(=O)[C@@H]1CCCN1C(=O)[C@H](Cc1ccc(O)cc1)NC(=O)[C@@H](NC(=O)[C@@H]1CCCN1C(=O)[C@H](CCC(=O)O)NC(=O)[C@H](CC(C)C)NC(=O)[C@@H]1CCCN1C(=O)[C@H](C)N)C(C)C)[C@@H](C)O)C(=O)N[C@@H](CC(N)=O)C(=O)N[C@@H](CCSC)C(=O)N[C@@H](CC(C)C)C(=O)N[C@H](C(=O)N[C@@H](CCCNC(=N)N)C(=O)N1CCC[C@H]1C(=O)N[C@@H](CCCNC(=N)N)C(=O)N[C@@H](Cc1ccc(O)cc1)C(N)=O)[C@@H](C)O` [PP(3-36)], the half-life is listed as “less than 30 minutes”.
